Measured values: patent US10273229B2, “N-substituted 4-aminoquinazoline derivatives and methods of use” (priority 2014, dated 2019)

Legend:
[1] = molecular target: T1, human ErbB2 (Homo sapiens, UniProt P04626); test: ErbB2 kinase assay, FRET peptide substrate (Example 3); assay type: biochemical; conditions: ErbB2 or EGFR (either kinase); in words
Method: Kinase assays were performed using standard protocols known to those skilled in the art. In brief, kinase, peptide substrate labeled with both coumarin (donor fluorophore) and fluorescein (acceptor fluorophore), ATP, and test compound are incubated together in a kinase reaction buffer. Typically, the reaction was stopped by development reagent (protease) with certain dilution factor after 2 hours. The plate was analyzed in Perkin Elmer Envision by FRET mode. The high ratio of coumarin/fluorescein represents 0% phosphorylation rate while low ratio of coumarin/fluorescein represents 100% phosphorylation rate.

[2] = molecular target: T1, human ErbB2; test: ErbB2 kinase assay at RBC, 33P-ATP filter binding (Example 5); assay type: biochemical; conditions: in words
Method: The synthesis and biochemical testing of these compounds was completed using alternate CROs as a control for characterizing compounds.
(§1) Kinase assays were performed at RBC using standard protocols known to those skilled in the art. In brief, kinase, any required cofactors, substrate in DMSO, and kinase reaction mixture (by acoustic technology; Echo 550; nanoliter range) were incubated for 20 minutes at room temperature. 33P-ATP was added to initiate the reaction, which was incubated for 2 hours at room temperature.

[3] = molecular target: T2, EGFR (Homo sapiens, UniProt P00533); test: EGFR kinase assay at RBC, 33P-ATP filter binding (Example 5); assay type: biochemical; conditions: in words
Method: as §1, with “The synthesis and biochemical testing of these compounds was completed using alternate CROs as a control for characterizing compounds. Kinase” for “Kinase”

[4] = molecular target: T3, CYP3A4 (Homo sapiens, UniProt P08684)
[5] = molecular target: T3, CYP3A4; conditions: in words; for CYP3A4 inhibitor potency after preincubation with the test compound, compared with lapatinib: time dependent arm
[6] = molecular target: ErbB4 (Homo sapiens, UniProt Q15303); test: ErbB4 kinase inhibition (Table 1); assay type: biochemical
[7] = molecular target: Syk (Homo sapiens, UniProt P43405); test: Syk kinase inhibition (Table 1)
[8] = molecular target: T2, EGFR; test: EGFR kinase inhibition (Table 1)
[9] = system: BT-474 cells; test: Cytotoxicity against BT-474 cells, CellTiter 96 (Example 4); assay type: cell-based, human; conditions: in words
Method: (§2) All of the test compounds were kept between 4° C. to 8° C. in solid form or as solution in DMSO. The cell lines BT-474 and NCI-N87 were obtained from the ATCC. The cell lines were maintained in liquid nitrogen. Cell lines were prepared by thawing a 1 mL vial of the cell line and splitting it into two T-75 flasks with 10 mL of the appropriate media. BT-474 and NCI-N87 both utilized RPMI 1640 with varying glucose content (1 g/L for BT-474 and 4.5 g/L for NCI-N87). The cell lines were trypsinized and split into two T-150 flasks each time the cell lines reached 70-90% confluency. When there were at least two confluent T-150 flasks of cell lines available, cultures were trypsinized and the cells enumerated using a hemocytometer and added to a 96-well microtiter plate at 1.5×10^5 cells/mL. The 96-well plates were then incubated at 37° C. with 5% CO2 for 24 hours to allow enough time for the cells to adhere to the wells. […] Lapatinib and media without the test compounds were used as controls. All 96-well plates were incubated at 37° C. with 5% CO2 for 3 days with plates containing BT-474 and for 6 days with plates containing NCI-N87. […] After recovery, cell viability was determined using the CellTiter 96® Aqueous One Solution Cell Proliferation Assay kit (Promega). The optical density (OD) was read using a SPECTRAMAX® M5 Microplate Reader (Molecular Devices) at 490 nm. […]

[10] = system: NCI-N87 cells; test: Cytotoxicity against NCI-N87 cells, CellTiter 96 (Example 4); assay type: cell-based; conditions: in words
Method: as §2

[11] = system: BT-474 cells; test: Cytotoxicity against BT-474 cells at RBC, Cell Titer-Glo 2.0 (Example 6); assay type: cell-based, human; conditions: in words
Method: All of the test compounds were kept between 4° C. to 8° C. in solid form or as solution in DMSO. The cell line BT-474 was obtained from the ATCC. Test compounds were dissolved in DMSO (10 mM stock). Cell Titer-Glo® 2.0 Luminescent cell viability assay reagent was obtained from Promega. BT474 human breast cancer cell line was grown in Hybri-care medium supplemented with 1.5 g/L sodium bicarbonate and 10% FBS. 100 μg/ml penicillin and 100 μg/ml streptomycin were added to all culture media. Cultures were maintained at 37° C. in a humidified atmosphere of 5% CO2 and 95% air. Test compounds in DMSO were added in a source plate. 25 nL of test compounds was delivered from the source plate to each well of the 384-well cell culture plates by Echo 550. 25 μl of culture medium containing 1000 cells for each cell line was added to the wells of the cell culture plates. […] The contents were mixed on an orbital shaker for 2 minutes and incubated at room temperature for 10 minutes to stabilize luminescent signal Luminescence was recorded by Envision 2104 Multilabel Reader (Perkin Elmer). The number of viable cells in culture was determined based on quantization of the ATP present in each culture well. The IC50 values were calculated and the IC50 curves were plotted using the GraphPad Prism 4 program based on a sigmoidal dose-response equation.

T3 sequence (P08684 whole entry): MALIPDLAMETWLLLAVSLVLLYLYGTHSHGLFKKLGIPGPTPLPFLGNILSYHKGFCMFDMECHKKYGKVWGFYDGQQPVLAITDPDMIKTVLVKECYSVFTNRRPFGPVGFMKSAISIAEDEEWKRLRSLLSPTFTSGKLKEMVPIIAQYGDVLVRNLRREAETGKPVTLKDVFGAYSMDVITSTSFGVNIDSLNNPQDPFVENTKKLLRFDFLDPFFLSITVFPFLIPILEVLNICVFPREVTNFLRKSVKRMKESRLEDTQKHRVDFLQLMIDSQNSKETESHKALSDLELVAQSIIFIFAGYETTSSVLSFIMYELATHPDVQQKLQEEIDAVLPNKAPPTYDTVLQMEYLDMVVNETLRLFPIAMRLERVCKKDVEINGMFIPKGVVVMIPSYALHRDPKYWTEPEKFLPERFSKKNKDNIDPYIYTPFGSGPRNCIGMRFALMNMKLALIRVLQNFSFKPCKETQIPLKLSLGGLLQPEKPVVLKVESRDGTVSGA
T1 sequence (P04626 23-1255): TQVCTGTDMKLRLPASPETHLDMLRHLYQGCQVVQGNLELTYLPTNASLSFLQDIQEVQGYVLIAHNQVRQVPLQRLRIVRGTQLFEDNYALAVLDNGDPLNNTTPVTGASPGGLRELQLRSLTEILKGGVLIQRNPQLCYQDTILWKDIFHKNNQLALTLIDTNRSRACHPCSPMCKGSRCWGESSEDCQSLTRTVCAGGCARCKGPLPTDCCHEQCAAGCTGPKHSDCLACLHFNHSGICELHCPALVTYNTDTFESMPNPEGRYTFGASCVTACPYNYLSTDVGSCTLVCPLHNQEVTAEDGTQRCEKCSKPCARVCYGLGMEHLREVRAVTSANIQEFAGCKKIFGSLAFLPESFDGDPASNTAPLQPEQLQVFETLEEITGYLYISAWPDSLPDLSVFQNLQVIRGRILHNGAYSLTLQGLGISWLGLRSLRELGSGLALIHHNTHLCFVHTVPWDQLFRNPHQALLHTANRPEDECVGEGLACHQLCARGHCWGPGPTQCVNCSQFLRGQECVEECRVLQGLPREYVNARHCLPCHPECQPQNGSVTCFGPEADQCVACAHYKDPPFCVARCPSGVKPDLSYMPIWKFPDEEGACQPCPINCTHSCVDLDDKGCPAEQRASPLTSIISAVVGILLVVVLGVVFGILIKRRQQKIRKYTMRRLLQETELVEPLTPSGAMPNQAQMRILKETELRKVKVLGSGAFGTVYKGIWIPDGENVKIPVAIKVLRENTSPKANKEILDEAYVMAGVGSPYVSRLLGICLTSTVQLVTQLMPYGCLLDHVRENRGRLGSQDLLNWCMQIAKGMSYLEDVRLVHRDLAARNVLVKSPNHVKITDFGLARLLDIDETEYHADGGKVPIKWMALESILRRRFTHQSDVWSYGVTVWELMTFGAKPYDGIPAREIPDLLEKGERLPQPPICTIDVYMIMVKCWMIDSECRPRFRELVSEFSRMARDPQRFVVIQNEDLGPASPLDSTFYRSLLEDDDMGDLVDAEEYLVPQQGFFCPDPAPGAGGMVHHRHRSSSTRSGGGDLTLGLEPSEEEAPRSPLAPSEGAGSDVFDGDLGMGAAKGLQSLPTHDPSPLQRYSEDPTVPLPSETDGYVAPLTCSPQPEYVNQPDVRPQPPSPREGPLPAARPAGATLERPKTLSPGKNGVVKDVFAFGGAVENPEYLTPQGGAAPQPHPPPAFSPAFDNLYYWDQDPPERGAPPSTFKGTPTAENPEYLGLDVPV
T2 sequence (P00533 25-1210): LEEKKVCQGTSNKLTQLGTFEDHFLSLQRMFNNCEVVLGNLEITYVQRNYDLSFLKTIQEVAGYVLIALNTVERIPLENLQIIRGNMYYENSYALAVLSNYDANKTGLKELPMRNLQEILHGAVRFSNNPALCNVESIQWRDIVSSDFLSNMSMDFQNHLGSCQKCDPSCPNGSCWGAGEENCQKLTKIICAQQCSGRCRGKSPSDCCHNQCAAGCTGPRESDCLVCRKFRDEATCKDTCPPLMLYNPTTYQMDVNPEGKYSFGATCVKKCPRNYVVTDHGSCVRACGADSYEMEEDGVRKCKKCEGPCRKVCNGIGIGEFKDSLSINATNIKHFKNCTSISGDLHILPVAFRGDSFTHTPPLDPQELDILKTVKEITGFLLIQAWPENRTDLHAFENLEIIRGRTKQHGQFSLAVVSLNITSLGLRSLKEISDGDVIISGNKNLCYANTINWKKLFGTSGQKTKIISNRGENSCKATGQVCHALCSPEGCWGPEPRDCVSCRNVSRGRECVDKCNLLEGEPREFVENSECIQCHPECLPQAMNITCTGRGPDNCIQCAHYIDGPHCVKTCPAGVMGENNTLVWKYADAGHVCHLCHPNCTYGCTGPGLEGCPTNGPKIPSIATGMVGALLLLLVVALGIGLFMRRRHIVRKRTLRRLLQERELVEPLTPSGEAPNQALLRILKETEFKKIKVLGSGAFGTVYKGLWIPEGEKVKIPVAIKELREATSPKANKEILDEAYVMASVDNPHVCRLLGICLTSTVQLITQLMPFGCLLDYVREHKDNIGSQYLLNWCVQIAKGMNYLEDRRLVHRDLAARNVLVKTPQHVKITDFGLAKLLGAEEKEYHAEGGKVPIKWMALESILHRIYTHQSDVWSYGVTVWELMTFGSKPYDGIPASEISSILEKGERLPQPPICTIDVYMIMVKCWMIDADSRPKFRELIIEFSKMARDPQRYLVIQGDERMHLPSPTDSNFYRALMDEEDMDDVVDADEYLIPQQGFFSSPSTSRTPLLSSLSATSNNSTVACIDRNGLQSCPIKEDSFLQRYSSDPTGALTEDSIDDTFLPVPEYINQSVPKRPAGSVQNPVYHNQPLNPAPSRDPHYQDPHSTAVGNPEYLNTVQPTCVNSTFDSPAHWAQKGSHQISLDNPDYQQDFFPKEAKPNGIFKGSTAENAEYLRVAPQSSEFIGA
Sequence of ErbB4 (Q15303 26-1308, species assumed): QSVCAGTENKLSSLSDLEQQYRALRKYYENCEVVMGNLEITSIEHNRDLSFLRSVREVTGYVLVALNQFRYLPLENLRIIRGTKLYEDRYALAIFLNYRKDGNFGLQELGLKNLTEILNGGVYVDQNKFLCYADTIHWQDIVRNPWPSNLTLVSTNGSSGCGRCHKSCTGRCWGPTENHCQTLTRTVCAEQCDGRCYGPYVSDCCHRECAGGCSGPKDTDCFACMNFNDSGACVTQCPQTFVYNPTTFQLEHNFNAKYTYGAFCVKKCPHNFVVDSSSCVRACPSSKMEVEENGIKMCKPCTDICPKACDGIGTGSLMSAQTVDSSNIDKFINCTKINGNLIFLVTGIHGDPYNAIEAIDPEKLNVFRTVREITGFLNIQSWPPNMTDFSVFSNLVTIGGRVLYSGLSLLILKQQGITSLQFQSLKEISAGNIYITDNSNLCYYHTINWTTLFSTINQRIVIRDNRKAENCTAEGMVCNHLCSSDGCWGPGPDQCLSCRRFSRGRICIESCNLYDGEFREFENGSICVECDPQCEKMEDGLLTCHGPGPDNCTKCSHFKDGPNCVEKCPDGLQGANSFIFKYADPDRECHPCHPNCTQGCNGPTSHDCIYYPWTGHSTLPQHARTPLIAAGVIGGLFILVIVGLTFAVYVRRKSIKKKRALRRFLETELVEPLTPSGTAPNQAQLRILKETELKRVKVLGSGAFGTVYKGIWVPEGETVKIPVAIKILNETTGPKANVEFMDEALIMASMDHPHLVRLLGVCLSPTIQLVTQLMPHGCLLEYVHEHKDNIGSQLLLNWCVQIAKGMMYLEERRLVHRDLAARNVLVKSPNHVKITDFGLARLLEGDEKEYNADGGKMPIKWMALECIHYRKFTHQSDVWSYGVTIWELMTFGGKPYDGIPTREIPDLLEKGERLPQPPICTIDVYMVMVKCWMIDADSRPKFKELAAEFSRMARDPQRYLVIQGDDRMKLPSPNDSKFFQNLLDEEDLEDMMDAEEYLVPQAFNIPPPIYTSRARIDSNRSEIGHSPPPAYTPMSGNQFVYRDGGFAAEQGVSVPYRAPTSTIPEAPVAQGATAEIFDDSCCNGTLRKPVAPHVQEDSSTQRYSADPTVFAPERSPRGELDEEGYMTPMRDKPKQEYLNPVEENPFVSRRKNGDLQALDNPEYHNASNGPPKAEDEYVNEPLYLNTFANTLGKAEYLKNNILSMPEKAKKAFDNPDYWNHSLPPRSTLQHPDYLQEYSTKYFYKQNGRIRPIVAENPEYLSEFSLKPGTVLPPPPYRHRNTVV

SMILES | inhibition of ErbB2 or EGFR, potency compared with lapatinib [1] | CYP3A4 inhibitor potency compared with lapatinib [5] | CYP3A4 inhibitor potency after preincubation with the test compound, compared with lapatinib [5] | Ratio IC50:TD*** [4] | also measured
CS(=O)(=O)CCN(CC(=O)O)Cc1ccc(-c2ccc3ncnc(Nc4ccc(OCc5cccc(F)c5)c(Cl)c4)c3c2)o1 [Compound 6] | better potency than lapatinib | less potent | less potent | +++ | ErbB2 inhibition potency compared with lapatinib [2]: better potency than lapatinib; EGFR inhibition potency compared with lapatinib [3]: better potency than lapatinib
CS(=O)(=O)CCN(Cc1ccc(-c2ccc3ncnc(Nc4ccc(OCc5cccc(F)c5)c(Cl)c4)c3c2)o1)C1CCC1 [Compound 10] | better potency than lapatinib | less potent | less potent | + | time dependent shift of CYP3A4 inhibition compared with lapatinib [5]: possible exception
CS(=O)(=O)CCN(O)Cc1ccc(-c2ccc3ncnc(Nc4ccc(OCc5cccc(F)c5)c(Cl)c4)c3c2)o1 [Compound 2] | – | – | – | – | IC50 [6]: 32 nM; IC50 [7]: > 10000 nM; IC50 [8]: 72 nM
CC(=O)N(CCS(C)(=O)=O)Cc1ccc(-c2ccc3ncnc(Nc4ccc(OCc5cccc(F)c5)c(Cl)c4)c3c2)o1 [Compound 8] | better potency than lapatinib | – | less potent | – | –
CS(=O)(=O)CCN(Cc1ccc(-c2ccc3ncnc(Nc4ccc(OCc5cccc(F)c5)c(Cl)c4)c3c2)o1)C1COC1 [Compound 9] | better potency than lapatinib | – | less potent | +++ | BT-474 IC50 compared with lapatinib [9]: lower than those observed for lapatinib; NCI-N87 IC50 compared with lapatinib [10]: lower than those observed for lapatinib; BT-474 IC50 compared with lapatinib [11]: lower IC50 than lapatinib
CS(=O)(=O)CCN(Cc1ccc(-c2ccc3ncnc(Nc4ccc(OCc5cccc(F)c5)c(Cl)c4)c3c2)o1)S(C)(=O)=O [Compound 7] | better potency than lapatinib | less potent | less potent | ++ | BT-474 IC50 compared with lapatinib [9]: lower than those observed for lapatinib; NCI-N87 IC50 compared with lapatinib [10]: lower than those observed for lapatinib

More lines, main results first:

inhibition of ErbB2 or EGFR, potency compared with lapatinib [1] | CYP3A4 inhibitor potency compared with lapatinib [5] | CYP3A4 inhibitor potency after preincubation with the test compound, compared with lapatinib [5] | SMILES | Ratio IC50:TD*** [4] | also measured
– | less potent | less potent | CN(C)C(=O)ON(CCS(C)(=O)=O)Cc1ccc(-c2ccc3ncnc(Nc4ccc(OCc5cccc(F)c5)c(Cl)c4)c3c2)o1 [Compound 4] | – | –
– | less potent | less potent | CS(=O)(=O)CCN(Cc1ccc(-c2ccc3ncnc(Nc4ccc(OCc5cccc(F)c5)c(Cl)c4)c3c2)o1)OC(N)=O [Compound 3] | – | –
better potency than lapatinib | – | – | COC(=O)ON(CCS(C)(=O)=O)Cc1ccc(-c2ccc3ncnc(Nc4ccc(OCc5cccc(F)c5)c(Cl)c4)c3c2)o1 [Compound 5] | ++ | –
